Earlier results in publication PMC11990879, “Anticandidal Activity of Lipopeptides Containing an LL-37-Derived Peptide Fragment KR12” (Molecules, 2025).
Marks after values point to notes of the source that are not given here. Where a SMILES comes first, the peptide text is derived from it. The star is where a group is joined. Butanoyl(4-Ph) = O=C(CCCc1ccccc1)*; Hydrocinnamoyl = O=C(CCc1ccccc1)*; Octanoyl = CCCCCCCC(=O)*; X3 = O=C(/C=C/c1ccccc1)*; Hexanoyl = CCCCCC(=O)*; X2 = O=C(C#Cc1ccccc1)*; X4 = CCCCC(CC)C(=O)*; Butyryl = CCCC(=O)*

test system: human red blood cells; settings: cited from earlier work
Text: Table 2 Minimum inhibitory concentrations (MIC) and minimum fungicidal concentrations (MFC) determined for peptides and reference antifungals [g/L]. The highest antimicrobial activity is marked in green, medium values in yellow, while the weakest antifungal activity is marked in red. Minimum hemolytic concentration (MHC5%—causing hemolysis of 5% of human red blood cells) determined in previous stu | column: MHC5%

Molecule	MHC5% (minimum hemolytic concentration causing hemolysis of 5% of human red blood cells)
CC[C@H](C)[C@H](NC(=O)[C@H](CCCNC(=N)N)NC(=O)[C@H](CCC(N)=O)NC(=O)[C@@H](NC(=O)[C@@H](NC(=O)[C@H](CCCNC(=N)N)NC(=O)[C@H](CCCCN)NC(=O)/C=C/c1ccccc1)[C@@H](C)CC)C(C)C)C(=O)N[C@@H](CCCCN)C(=O)N[C@@H](CC(=O)O)C(=O)N[C@@H](Cc1ccccc1)C(=O)N[C@@H](CC(C)C)C(=O)N[C@@H](CCCNC(=N)N)C(N)=O [IX, trans-cinnamic acid-KR12-NH2] (X3-KRIVQRIKDFLR-NH2)	128 g/L
CCCCCCCC(=O)NCCCC[C@H](N)C(=O)N[C@@H](CCCNC(=N)N)C(=O)N[C@H](C(=O)N[C@H](C(=O)N[C@@H](CCC(N)=O)C(=O)N[C@@H](CCCNC(=N)N)C(=O)N[C@H](C(=O)N[C@@H](CCCCN)C(=O)N[C@@H](CC(=O)O)C(=O)N[C@@H](Cc1ccccc1)C(=O)N[C@@H](CC(C)C)C(=O)N[C@@H](CCCNC(=N)N)C(N)=O)[C@@H](C)CC)C(C)C)[C@@H](C)CC [XI, C8^ε-KR12-NH2] (H-K(Octanoyl)RIVQRIKDFLR-NH2)	>256 * g/L
CCCCCCCC(=O)N[C@@H](CCCCN)C(=O)N[C@@H](CCCCN)C(=O)N[C@@H](CCCNC(=N)N)C(=O)N[C@H](C(=O)N[C@H](C(=O)N[C@@H](CCC(N)=O)C(=O)N[C@@H](CCCNC(=N)N)C(=O)N[C@H](C(=O)N[C@@H](CCCCN)C(=O)N[C@@H](CC(=O)O)C(=O)N[C@@H](Cc1ccccc1)C(=O)N[C@@H](CC(C)C)C(=O)N[C@@H](CCCNC(=N)N)C(N)=O)[C@@H](C)CC)C(C)C)[C@@H](C)CC [XII, C8^α-Lys-KR12-NH2] (Octanoyl-KKRIVQRIKDFLR-NH2)	256 g/L
CCCCC(CC)C(=O)N[C@@H](CCCCN)C(=O)N[C@@H](CCCNC(=N)N)C(=O)N[C@H](C(=O)N[C@H](C(=O)N[C@@H](CCC(N)=O)C(=O)N[C@@H](CCCNC(=N)N)C(=O)N[C@H](C(=O)N[C@@H](CCCCN)C(=O)N[C@@H](CC(=O)O)C(=O)N[C@@H](Cc1ccccc1)C(=O)N[C@@H](CC(C)C)C(=O)N[C@@H](CCCNC(=N)N)C(N)=O)[C@@H](C)CC)C(C)C)[C@@H](C)CC (stereo partly drawn) [XX, 2-Ethylhexanoic acid-KR12-NH2] (X4-KRIVQRIKDFLR-NH2)	256 g/L
CC[C@H](C)[C@H](NC(=O)[C@H](CCCNC(=N)N)NC(=O)[C@H](CCC(N)=O)NC(=O)[C@@H](NC(=O)[C@@H](NC(=O)[C@H](CCCNC(=N)N)NC(=O)[C@H](CCCCN)NC(=O)CCCc1ccccc1)[C@@H](C)CC)C(C)C)C(=O)N[C@@H](CCCCN)C(=O)N[C@@H](CC(=O)O)C(=O)N[C@@H](Cc1ccccc1)C(=O)N[C@@H](CC(C)C)C(=O)N[C@@H](CCCNC(=N)N)C(N)=O [XXIII, 4-Phenylbutanoic acid-KR12-NH2] ({Butanoyl(4-Ph)}-KRIVQRIKDFLR-NH2)	128 g/L
CC[C@H](C)[C@H](NC(=O)[C@H](CCCNC(=N)N)NC(=O)[C@H](CCC(N)=O)NC(=O)[C@@H](NC(=O)[C@@H](NC(=O)[C@H](CCCNC(=N)N)NC(=O)[C@H](CCCCN)NC(=O)C#Cc1ccccc1)[C@@H](C)CC)C(C)C)C(=O)N[C@@H](CCCCN)C(=O)N[C@@H](CC(=O)O)C(=O)N[C@@H](Cc1ccccc1)C(=O)N[C@@H](CC(C)C)C(=O)N[C@@H](CCCNC(=N)N)C(N)=O [XXIV, Phenylpropiolic acid-KR12-NH2] (X2-KRIVQRIKDFLR-NH2)	256 g/L

same assay, conditions: human red blood cells; determined in previous studies; ref [13],[14]; cited from earlier work

Molecule	MHC5% (minimum hemolytic concentration causing hemolysis of 5% of human red blood cells)
CCCC(=O)N[C@@H](CCCCN)C(=O)N[C@@H](CCCNC(=N)N)C(=O)N[C@H](C(=O)N[C@H](C(=O)N[C@@H](CCC(N)=O)C(=O)N[C@@H](CCCNC(=N)N)C(=O)N[C@H](C(=O)N[C@@H](CCCCN)C(=O)N[C@@H](CC(=O)O)C(=O)N[C@@H](Cc1ccccc1)C(=O)N[C@@H](CC(C)C)C(=O)N[C@@H](CCCNC(=N)N)C(N)=O)[C@@H](C)CC)C(C)C)[C@@H](C)CC [II, C4-KR12-NH2] (Butyryl-KRIVQRIKDFLR-NH2)	>256 * g/L
CCCCCC(=O)N[C@@H](CCCCN)C(=O)N[C@@H](CCCNC(=N)N)C(=O)N[C@H](C(=O)N[C@H](C(=O)N[C@@H](CCC(N)=O)C(=O)N[C@@H](CCCNC(=N)N)C(=O)N[C@H](C(=O)N[C@@H](CCCCN)C(=O)N[C@@H](CC(=O)O)C(=O)N[C@@H](Cc1ccccc1)C(=O)N[C@@H](CC(C)C)C(=O)N[C@@H](CCCNC(=N)N)C(N)=O)[C@@H](C)CC)C(C)C)[C@@H](C)CC [III, C6-KR12-NH2] (Hexanoyl-KRIVQRIKDFLR-NH2)	256 g/L
CCCCCCCC(=O)NCCCC[C@H](N)C(=O)N[C@@H](CCCCN)C(=O)N[C@@H](CCCNC(=N)N)C(=O)N[C@H](C(=O)N[C@H](C(=O)N[C@@H](CCC(N)=O)C(=O)N[C@@H](CCCNC(=N)N)C(=O)N[C@H](C(=O)N[C@@H](CCCCN)C(=O)N[C@@H](CC(=O)O)C(=O)N[C@@H](Cc1ccccc1)C(=O)N[C@@H](CC(C)C)C(=O)N[C@@H](CCCNC(=N)N)C(N)=O)[C@@H](C)CC)C(C)C)[C@@H](C)CC [XIII, C8^ε-Lys-KR12-NH2] (H-K(Octanoyl)KRIVQRIKDFLR-NH2)	256 g/L
CCCCCCCC(=O)NCCCC[C@H](NC(=O)[C@H](CCCNC(=N)N)NC(=O)[C@H](CC(C)C)NC(=O)[C@H](Cc1ccccc1)NC(=O)[C@H](CC(=O)O)NC(=O)[C@H](CCCCN)NC(=O)[C@@H](NC(=O)[C@H](CCCNC(=N)N)NC(=O)[C@H](CCC(N)=O)NC(=O)[C@@H](NC(=O)[C@@H](NC(=O)[C@H](CCCNC(=N)N)NC(=O)[C@@H](N)CCCCN)[C@@H](C)CC)C(C)C)[C@@H](C)CC)C(N)=O [XIV, KR12-Lys^ε(C8)-NH2] (H-KRIVQRIKDFLRK(Octanoyl)-NH2)	>256 * g/L
CCCCCCCC(=O)NCCCC[C@H](NC(=O)[C@H](CC(C)C)NC(=O)[C@H](Cc1ccccc1)NC(=O)[C@H](CC(=O)O)NC(=O)[C@H](CCCCN)NC(=O)[C@@H](NC(=O)[C@H](CCCNC(=N)N)NC(=O)[C@H](CCC(N)=O)NC(=O)[C@@H](NC(=O)[C@@H](NC(=O)[C@H](CCCNC(=N)N)NC(=O)[C@@H](N)CCCCN)[C@@H](C)CC)C(C)C)[C@@H](C)CC)C(N)=O [XV, [Lys^ε(C8)]^12KR12-NH2] (H-KRIVQRIKDFLK(Octanoyl)-NH2)	>256 * g/L
CCCCCCCC(=O)NCCCC[C@H](NC(=O)[C@H](CCCNC(=N)N)NC(=O)[C@@H](NC(=O)[C@@H](NC(=O)[C@H](CCC(N)=O)NC(=O)[C@H](CCCNC(=N)N)NC(=O)[C@@H](NC(=O)[C@H](CCCCN)NC(=O)[C@H](CC(=O)O)NC(=O)[C@H](Cc1ccccc1)NC(=O)[C@H](CC(C)C)NC(=O)[C@@H](N)CCCNC(=N)N)[C@@H](C)CC)C(C)C)[C@@H](C)CC)C(N)=O [XVII, Retro-KR12-C8^ε-NH2] (H-RLFDKIRQVIRK(Octanoyl)-NH2)	256 g/L
CCCCCCCC(=O)N[C@@H](CCCNC(=N)N)C(=O)N[C@@H](CC(C)C)C(=O)N[C@@H](Cc1ccccc1)C(=O)N[C@@H](CC(=O)O)C(=O)N[C@@H](CCCCN)C(=O)N[C@H](C(=O)N[C@@H](CCCNC(=N)N)C(=O)N[C@@H](CCC(N)=O)C(=O)N[C@H](C(=O)N[C@H](C(=O)N[C@@H](CCCNC(=N)N)C(=O)N[C@@H](CCCCN)C(N)=O)[C@@H](C)CC)C(C)C)[C@@H](C)CC [XVIII, C8^α-retro-KR12-NH2] (Octanoyl-RLFDKIRQVIRK-NH2)	>256 * g/L
CC[C@H](C)[C@H](NC(=O)[C@H](CCCNC(=N)N)NC(=O)[C@H](CCC(N)=O)NC(=O)[C@@H](NC(=O)[C@@H](NC(=O)[C@H](CCCNC(=N)N)NC(=O)[C@H](CCCCN)NC(=O)CCc1ccccc1)[C@@H](C)CC)C(C)C)C(=O)N[C@@H](CCCCN)C(=O)N[C@@H](CC(=O)O)C(=O)N[C@@H](Cc1ccccc1)C(=O)N[C@@H](CC(C)C)C(=O)N[C@@H](CCCNC(=N)N)C(N)=O [XXII, 3-Phenylpropionic acid-KR12-NH2] (Hydrocinnamoyl-KRIVQRIKDFLR-NH2)	256 g/L
Ac-KRIVQRIKDFLR-NH2 [I, Ac-KR12-NH2]	>256 * g/L
